Data: patent US8735611B2, “Crystalline forms of cabazitaxel” (ScinoPharm Taiwan, Ltd., priority 2011, dated 2014)

Test: Dynamic vapor sorption (DVS) analysis
Assay type: physicochemical
Settings: over 2 cycles tested; consistent with loss of AcOH upon dehumidification, confirmed by 1H NMR after DVS
Description: XRPD analysis confirmed that Form C9 is crystalline. […] (FIG. 10c). Decomposition occurs at about 220° C., as indicated by the large weight loss observed by TGA around this temperature. […] This was confirmed by ^1H NMR spectroscopy after DVS analysis. KF titration of Form C9 indicated the presence of about 2.3% water.
A hot solution of cabazitaxel (0.1 g) in 1 mL of AcOH and 0.5 mL of H2O was slowly cooled to room temperature. The mixture was filtered and the resulting solids were dried in a vacuum oven to give cabazitaxel Form C9 as a white solid (melting point: 152.5-159.3° C.). […] This was consistent with a loss of AcOH upon dehumification, which was confirmed by ^1H NMR spectroscopic analysis after the DVS test.

CO[C@H]1C(=O)[C@]2(C)[C@@H](OC)C[C@H]3OC[C@@]3(OC(C)=O)[C@H]2[C@H](OC(=O)c2ccccc2)[C@]2(O)C[C@H](OC(=O)[C@H](O)[C@@H](NC(=O)OC(C)(C)C)c3ccccc3)C(C)=C1C2(C)C [Form C9, cabazitaxel]
weight loss and gain upon changing humidity (DVS): non-perfectly reversible weight loss and gain upon changing humidity
